The results in this text go back to patent US6479054B1, “Process for obtaining genistin-rich isoflavone composition” (Showa Sangyo Co., Ltd., priority 1998, dated 2002).

The data set is described as follows: Solubility of genistin in isoflavone containing eluate as a function of pH (FIG. 1). The format is physicochemical. The text has this: Concentrations of isoflavones in a supernatant are shown, making each isoflavone concentration at the time of elution 100.).

Take `O=c1c(-c2ccc(O)cc2)coc2cc(O[C@@H]3O[C@H](CO)[C@@H](O)[C@H](O)[C@H]3O)cc(O)c12` [genistin]: the “solubility of genistin in an isoflavone containing eluate” value (pHs of not less than 10) is recorded as “extremely high” and the “solubility of genistin in an isoflavone containing eluate” value (pHs of not more than 9.5) is “extremely low”.
